Data on 14 compounds can be found in patent US5703087A, “Phenyl indole compounds” (H. Lundbeck A/S, priority 1993, dated 1997).

A short description of data set [1]: Catalepsy in rats (vertical wire mesh). The settings on record: rat, in vivo, 1-6 hours, sc. How it is done:
Evaluation of catalepsy is made according to Arnt (Eur. J. Pharmacol. 90, 47-55 (1983)). Test compound is given s.c. in different doses. The rat (170-240 g) is placed on a vertical wire mesh (mesh diameter 12 mm). The rat is considered cataleptogenic if it remains immobile for more than 15 sec. The maximum number of rats showing catalepsy within the first 6 hours is recorded for each dose group. The results are recorded in fractions and an ED50 value is calculated by means of log-probit analysis.

The conditions of data set [2]: in vivo; cited from earlier work.
The subject of the next data set is 5-HT2. Nature of the data set: Quipazine inhibition (quipazine induced head twitches in rats). The settings on record: Rattus norvegicus. The format is in vivo. The source says: Quipazine is a 5-HT2 agonist, which induces head twitches in rats.
The next data set addresses T1, 5-HT2 receptors (Rattus norvegicus, UniProt P14842).
T1 construct: 5-HT2 receptors in membranes from rat; from tissue; host or cells: rat cortex membranes
Nature of the data set: Inhibition of 3H-Ketanserin binding to 5-HT2 receptors in membranes from rat cortex in vitro. The conditions noted are these: 0,5 nM 3H-ketanserin. How it is done: Inhibition of ^3 H-Ketanserin Binding To 5-HT2 Receptors in […] Cortex in vitro
By this method the inhibition by drugs of the binding of ^3 H-Ketanserin (0,5 nM) to 5-HT2 receptors in membranes from rat is determined in vitro. The method is described in Hyttel, Pharmacology & Toxicology 61, 126-129, 1987.

For the next data set, the target named is T2, dopamine D2 receptors (Rattus norvegicus, UniProt P61169).
T2 construct: dopamine D2 receptors in membranes from rat corpus striatum; from tissue; host or cells: rat corpus striatum membranes
T2 sequence (P61169 whole entry): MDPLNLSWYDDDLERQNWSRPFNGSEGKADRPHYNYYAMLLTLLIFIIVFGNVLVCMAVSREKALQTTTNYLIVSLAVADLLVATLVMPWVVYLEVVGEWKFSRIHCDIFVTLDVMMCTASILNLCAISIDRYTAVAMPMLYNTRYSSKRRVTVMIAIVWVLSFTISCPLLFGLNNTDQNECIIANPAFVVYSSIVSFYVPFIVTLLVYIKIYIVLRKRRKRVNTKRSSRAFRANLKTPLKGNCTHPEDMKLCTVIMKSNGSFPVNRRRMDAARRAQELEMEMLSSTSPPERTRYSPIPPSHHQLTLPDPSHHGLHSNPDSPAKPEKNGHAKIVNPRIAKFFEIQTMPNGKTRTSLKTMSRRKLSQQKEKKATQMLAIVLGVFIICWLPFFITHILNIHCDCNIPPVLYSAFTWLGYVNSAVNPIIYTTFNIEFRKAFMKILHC
Kind of data set: Inhibition of 3H-Spiperone binding to dopamine D2 receptors in rat corpus striatum in vitro. The settings on record: 0.5 nM 3H-spiperone, rat corpus striatum membranes, read-out: Dopamine D2 binding [^3 H]-spiroperidol. The protocol: Inhibition of ^3 H-Spiperone Binding to Dopamine D2 Receptors in Rat Corpus Striatum in vitro
By this method the inhibition by drugs of the binding of ^3 H-spiperone (0.5 nM) to dopamine D2 receptors in membranes from rat corpus striatum is determined in vitro.

[3] abbreviates: rats, 2 hours, sc, read-out: Quipazine inhibition 2 hours (sc) ED50.
The mark [4] stands for this setting: rats, 24 hours, po, read-out: Quipazine inhibition 24 hours (po) ED50.
Setting [5] is: po, 24 h, read-out: Quipazine inhibition 24 hours (po) ED50.
[6] abbreviates: sc, 2 h, read-out: Quipazine inhibition 2 hours (sc) ED50.

Structures can show the parent of a compound that is named as a salt. Where two headings read alike, the source gives them in different places.

What is called ED50 is the dose at which the effect has come halfway, by size or by number of responders.

T1 sequence (P14842 whole entry): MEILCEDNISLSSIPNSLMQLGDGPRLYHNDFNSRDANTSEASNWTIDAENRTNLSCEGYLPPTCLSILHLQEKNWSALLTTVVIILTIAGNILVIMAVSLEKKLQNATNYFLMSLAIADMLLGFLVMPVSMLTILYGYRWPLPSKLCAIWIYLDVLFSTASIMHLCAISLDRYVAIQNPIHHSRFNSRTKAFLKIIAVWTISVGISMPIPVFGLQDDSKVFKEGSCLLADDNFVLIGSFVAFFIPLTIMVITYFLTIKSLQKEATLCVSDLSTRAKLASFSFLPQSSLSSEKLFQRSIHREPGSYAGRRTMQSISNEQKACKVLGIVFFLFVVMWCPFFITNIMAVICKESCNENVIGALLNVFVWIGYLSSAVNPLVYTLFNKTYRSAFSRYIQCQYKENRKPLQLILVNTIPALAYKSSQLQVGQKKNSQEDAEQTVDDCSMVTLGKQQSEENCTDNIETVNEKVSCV

In turn, `O=C1NCCN1CCN1CCC(c2cn(-c3ccc(F)cc3)c3ccc(Cl)cc23)CC1` [sertindole, 1-[2-[4-[5-chloro-1-(4-fluorophenyl)-1H-indol-3-yl]piperidin-1-yl]ethyl]-2-imidazolidinone, reference compound] displayed a 50% effective dose (ED50) at 6 h in data set [1] of more than 91 µmol/kg. Besides, in data set [2], the anxiolytic activity entry is given as “found to show anxiolytic activity”. The ED50 with 5-HT2 (setting [3]) is 0.035 µmol/kg; in the data set on 5-HT2 (setting [4]), 0.039 µmol/kg.

For the compound `O=C1NCC(O)N1CCN1CCC(c2cn(-c3ccc(F)cc3)c3ccc(Cl)cc23)CC1` (centres unmarked) [Compound 1, 1-[2-[4-[5-chloro-1-(4-fluorophenyl)-1H-indol-3-yl]piperidin-1-yl]ethyl]-5-hydroxyimidazolidin-2-one], in data set [1], the ED50 at 6 h came to 39 µmol/kg. Also, the IC50 at 5-HT2 receptors was determined as 1.4 nM; on dopamine D2 receptors, 5.5 nM. Besides, the figures for the ED50 with 5-HT2 (setting [5]) and in the data set on 5-HT2 (setting [6]) were 0.085 µmol/kg and 0.099 µmol/kg, respectively.

The compound `[2H]C1([2H])CN(CCN2CCC(c3cn(-c4ccc(F)cc4)c4ccc(Cl)cc34)CC2)C(=O)N1` [Compound 5, 1-[2-[4-[5-Chloro-1-(4-fluorophenyl)-1H-indol-3-yl]piperidin-1-yl]ethyl]-4,4-dideuteroimidazolidin-2-one] registered an ED50 at 6 h in data set [1] of more than 45 µmol/kg. Moreover, the 50% effective dose (ED50) in the data set with 5-HT2 (setting [3]) was 0.055 µmol/kg; in the data set on 5-HT2 (setting [4]), 0.0097 µmol/kg.

In data set [1], `[2H]C1([2H])CNC(=O)N1CCN1CCC(c2cn(-c3ccc(F)cc3)c3ccc(Cl)cc23)CC1` [Compound 6, 1-[2-[4-[5-Chloro-1-(4-fluorophenyl)-1H-indol-3-yl]piperidin-1-yl]ethyl]-5,5-dideuteroimidazolidin-2-one] came in with an ED50 at 6 h of 30 µmol/kg. The 50% effective dose (ED50) is 0.02 µmol/kg with 5-HT2 (setting [3]) and 0.012 µmol/kg in the data set with 5-HT2 (setting [4]).

`CC1(C)CNC(=O)N1CCN1CCC(c2cn(-c3ccc(F)cc3)c3ccc(Cl)cc23)CC1` [Compound 9, 1-[2-[4-[5-Chloro-1-(4-fluorophenyl)-1H-indol-3-yl]piperidin-1-yl]ethyl]-5,5-dimethylimidazolidin-2-one] gave a 50% effective dose (ED50) at 6 h in data set [1] of more than 43 µmol/kg. Also, the results for the IC50 on 5-HT2 receptors and at dopamine D2 receptors were 1.7 nM and 14 nM, respectively. Also, the ED50 in the data set on 5-HT2 (setting [5]) was 0.078 µmol/kg; in the data set with 5-HT2 (setting [6]) it was 0.13 µmol/kg.

Compound `CC1(C)CN(CCN2CCC(c3cn(-c4ccc(F)cc4)c4ccc(Cl)cc34)CC2)C(=O)N1` [Compound 8, 1-[2-[4-[5-Chloro-1-(4-fluorophenyl)-1H-indol-3-yl]piperidin-1-yl]ethyl]-4,4-dimethylimidazolidin-2-one] returned a median effective dose (ED50) at 6 h in data set [1] of more than 43 µmol/kg. The IC50 at 5-HT2 receptors was found to be 2 nM; on dopamine D2 receptors it was 18 nM. In addition, the results for the median effective dose (ED50) with 5-HT2 (setting [5]) and in the data set with 5-HT2 (setting [6]) were 0.013 µmol/kg and 0.035 µmol/kg, respectively.

In data set [1], `O=C1NC(=O)N(CCN2CCC(c3cn(-c4ccc(F)cc4)c4ccc(Cl)cc34)CC2)C1O` (centres unmarked) [Compound 7b, 1-[2-[4-[5-chloro-1-(4-fluorophenyl)-1H-indol-3-yl]piperidin-1-yl]ethyl]-5-hydroxyimidazolidin-2,4-dione] returned a 50% effective dose (ED50) at 6 h of more than 21 µmol/kg. The IC50 at 5-HT2 receptors came out at 9.8 nM; on dopamine D2 receptors it was 23 nM.

`O=C1NC(O)C(=O)N1CCN1CCC(c2cn(-c3ccc(F)cc3)c3ccc(Cl)cc23)CC1` (centres unmarked) [Compound 7a, 1-[2-[4-[5-Chloro-1-(4-fluorophenyl)-1H-indol-3-yl]piperidin-1-yl]ethyl]-4-hydroxyimidazolidin-2,5-dione]: in data set [1], the ED50 at 6 h is more than 42 µmol/kg. In addition, the IC50 on 5-HT2 receptors was determined as 6.6 nM; at dopamine D2 receptors, 18 nM.

Turning to `[2H]C1([2H])NC(=O)N(CCN2CCC(c3cn(-c4ccc(F)cc4)c4ccc(Cl)cc34)CC2)C1([2H])[2H]` [Compound 4, 1-[2-[4-[5-Chloro-1-(4-fluorophenyl)-1H-indol-3-yl]piperidin-1-yl]ethyl]-4,4,5,5-tetradeuteroimidazolidin-2-one], in data set [1], the median effective dose (ED50) at 6 h is more than 45 µmol/kg. The ED50 in the data set on 5-HT2 (setting [3]) was 0.07 µmol/kg; in the data set on 5-HT2 (setting [4]), less than 0.0056 µmol/kg.

As to `CC1(C)C(=O)NC(=O)N1CCN1CCC(c2cn(-c3ccc(F)cc3)c3ccc(Cl)cc23)CC1` [Compound 10, 1-[2-[4-[5-Chloro-1-(4-fluorophenyl)-1H-indol-3-yl]piperidin-1-yl]ethyl]-5,5-dimethylimidazolidin-2,4-dione], the ED50 at 6 h in data set [1] was more than 30 µmol/kg. Also, the IC50 on 5-HT2 receptors came out at 12 nM; at dopamine D2 receptors, 20 nM. Moreover, the ED50 in the data set on 5-HT2 (setting [6]) was 0.33 µmol/kg.

The compound `O=C1NCC2(CCCC2)N1CCN1CCC(c2cn(-c3ccc(F)cc3)c3ccc(Cl)cc23)CC1` [Compound 13, 1-[2-[4-[5-Chloro-1-(4-fluorophenyl)-1H-indol-3-yl]piperidin-1-yl]ethyl]-1,3-diazaspiro[4.4]nonan-2-one] gave an ED50 at 6 h in data set [1] of more than 40 µmol/kg. The figures for the IC50 at 5-HT2 receptors and on dopamine D2 receptors were 4.5 nM and 30 nM, respectively. Besides, the values for the ED50 in the data set with 5-HT2 (setting [5]) and in the data set on 5-HT2 (setting [6]) were 0.45 µmol/kg and 0.088 µmol/kg, respectively.

As to `O=C1NC2(CCCC2)CN1CCN1CCC(c2cn(-c3ccc(F)cc3)c3ccc(Cl)cc23)CC1` [Compound 12, 3-[2-[4-[5-Chloro-1-(4-fluorophenyl)-1H-indol-3-yl]piperidin-1-yl]ethyl]-1,3-diazaspiro[4.4]nonan-2-one], in data set [1], the ED50 at 6 h is more than 40 µmol/kg. In addition, the IC50 at 5-HT2 receptors was determined as 4.7 nM; at dopamine D2 receptors it was 19 nM. The ED50 in the data set with 5-HT2 (setting [5]) was 0.037 µmol/kg; in the data set on 5-HT2 (setting [6]), 0.076 µmol/kg.

Consider `O=C1NC(O)C(O)N1CCN1CCC(c2cn(-c3ccc(F)cc3)c3ccc(Cl)cc23)CC1` (centres unmarked) [Compound 11, 1-[2-[4-[5-chloro-1-(4-fluorophenyl)-1H-indol-3-yl]piperidin-1-yl]ethyl]-4,5-dihydroxyimidazolidin-2-one], for which the IC50 was determined as 2.5 nM at 5-HT2 receptors and 18 nM at dopamine D2 receptors.

In turn, `COC1CNC(=O)N1CCN1CCC(c2cn(-c3ccc(F)cc3)c3ccc(Cl)cc23)CC1` (centres unmarked) [Compound 3, 1-[2-[4-[5-chloro-1-(4-fluorophenyl)-1H-indol-3-yl]piperidin-1-yl]ethyl]-5-methoxyimidazolidin-2-one, fumarate] gave an ED50 at 6 h in data set [1] of 17 µmol/kg. In addition, the IC50 at 5-HT2 receptors was 1.5 nM; on dopamine D2 receptors, 13 nM.
